“And” between values parts separate entries of the source, which are not always exact repeats. Equal values may be shown once. “Also recorded” adds a separate entry of the source. Positions of bridges follow the written chain, without caps; N, C: chain ends. Residues, ends and D or L forms follow the SMILES beside them.
Legend:
[1] = tested on: SW480 human colon cancer cells; test: Annexin V-FITC flow cytometry for apoptotic cells, SW480; assay type: cell-based; conditions: 24 hrs, 0 μM to 200 μM
Description: (§1) SW480 human colon cancer cells and MCF7 breast cancer cells were grown following the instructions of American Type Culture Collection (ATCC, Monassas, Va.). The cells were treated with the test peptides (YJB01, YJB05, or YJB06) for 24 hrs at concentrations ranging from 0 μM, to 200 μM. After treatment, cells were trypsinized and stained with Annexin V-FITC (100× dilution) for 15 minutes. Annexin V-FITC fluorescence intensities were analyzed by FACSCaliber (BD Bioscience) following standard protocols. Annexin V (+) cells are apoptotic cells.
(§2) When cells undergo apoptosis, the inner membrane phospholipid, phosphotidylserine (PS), flips to the outer membrane and can be recognized by the […]. The green FITC fluorescence can be determined by flow cytometry and thus Annexin V (+) cells are apoptotic cells.
as §1, with “In this study, SW480” for “SW480”, “human” for “human colon”, “treatment” for “treatment,”, “protocols.” for “protocols. Annexin V (+) cells are apoptotic cells.”

peroxiredoxin 1 = test: Oxidized peroxiredoxin 1 (Prx-O3) immunoblot in SW480 cells; assay type: cell-based, human; conditions: 1 h, YJB01 20 μM and 100 μM, YJB05 100 μM
Description: (§3) The oxidized peroxiredoxin 1 (sulphonic-peroxiredoxin, Prx-O3) was detected by using the specific anti-Prx-O3 antibody. Briefly, after SW480 cells were treated with either no peptide, with YBJ01 (at 20 μM and 100 μM), or with YJB05 (at 100 μM) for 1 h, total cell lysates were collected and separated on the SDS-PAGE gel. The gel was electroblotted onto a nitrocellulose membrane and probed with anti-Prx-O3, followed by HRP-conjugated secondary antibody. Bands corresponding to sulphonic-peroxiredoxin were visualized by ECL
as §3, with “anti-Prx-O3 antibody” for “anti-Prx-O3 antibody.”, “with YBJ05” for “with YJB05”

[2] = tested on: SW480 human colon cancer cell xenografts; test: In vivo xenograft assay of tumor size, SCID mice; conditions: 100 μg intraperitoneally once a day, 10 days, one mouse
Description: Immunodeficient SCID mice (from Jackson Lab) were transplanted subcutaneously to their flank with 1.5 million SW480 human colon cancer cells. After the tumor size reached 120-150 mm^3, one mouse was treated with 100 μg YJB01 peptide injected intraperitoneally once a day, and the other one was treated with DMSO as a vehicle control. The tumor size was measured every two days (see FIG. 3A and FIG. 3B). The tumor volume was calculated based on its length (L) and width (W) using the formula Tumor volume=LW(L+W/2)0.56. (Rigas, B., and Kozoni, V., (2008) International Journal of Oncology, 32: 97-100). On the 10th day of treatment, the tumor volume was determined, the SCID mice were sacrificed and the tumors were excised and their weight was recorded (FIG. 3B).

[3] = tested on: SW480 human colon cancer cells; test: Flow cytometry forward/side scatter, proportion of dead cells, SW480; assay type: cell-based; conditions: 200 μM, 24 hr
Description: SW480 human colon cancer cells and MCF7 breast cancer cells were grown following the instructions of American Type Culture Collection (ATCC, Monassas, Va.). The cells were treated with the test peptides (YJB01, YJB05, or YJB06) for 24 hrs at concentrations ranging from 0 μM, to 200 μM and subjected to flow cytometric analysis following standard protocols.
SW480 human colon cancer cells and MCF7 breast cancer cells were grown following the instructions of American Type Culture Collection (ATCC, Monassas, Va.). The cells were treated with the test peptides for 24 hrs at concentrations ranging from 0 μM, to 200 μM and subjected to flow cytometry analysis following standard protocols. […] The circumscribed (gated, outlined) areas in the figure indicate dead cells; dead cells generally have higher density (side scatter) and smaller size (forward scatter) than living cells.

[4] = tested on: SW480 human colon cancer cells; test: RONS levels by DCFDA probe, flow cytometry; assay type: cell-based; conditions: 1 hr, control 14.69
Description: (§4) SW480 human colon cancer cells were grown following the instructions of American Type Culture Collection (ATCC, Monassas, Va.). The cells were treated with the test peptide YJB01 for 1 hr at either 20 μM or 100 μM. After treatment, cells were trypsinized and stained with DCFDA (10 μmol/L) for 30 minutes at 37° C. DCFDA fluorescence intensity was analyzed by FACSCaliber (BD Bioscience) following standard protocols. […] Thus, FIG. 6A indicates YJB01 induces RONS production in a concentration dependent manner.
The levels of RONS in SW480 and MCF-7 cells were evaluated using the methodology described in Rigas, B., and Y. Sun. (2008), using the general RONS probe, dichlorodihydrofluorescein diacetate (DCFDA). (Rigas, B., and Sun., Y., (2008), Br J Cancer 98:1157-1160).
as §4, with “37°.” for “37° C.”

[5] = tested on: MCF-7 human breast cancer cells; test: Annexin V-FITC flow cytometry for apoptotic cells, MCF7; assay type: cell-based; conditions: 24 hrs, 0 μM to 200 μM
Description: as §1, §2
as §1, with “In this study, SW480” for “SW480”, “human” for “human colon”, “treatment” for “treatment,”, “protocols.” for “protocols. Annexin V (+) cells are apoptotic cells.”

[6] = tested on: HT29 human colon cancer cells; assay type: cell-based; conditions: inhibits cell growth by 50% at 24 hours of exposure; MTT or cell Titer-Glo; read-out: IC50s, HT29
Excerpt: (FIG. 2A1-8, and FIG. 2B1-6).

Compound: CC[C@H](C)[C@H](NC(=O)[C@H](CCCCN)NC(=O)[C@@H](NC(=O)[C@H](CCC(N)=O)NC(=O)[C@H](CCCNC(=N)N)NC(=O)[C@@H]1CCCN1C(=O)[C@H](CCCCN)NC(=O)[C@@H]1CSSC[C@H](NC(=O)[C@H](Cc2c[nH]c3ccccc23)NC(=O)[C@@H](NC(=O)[C@H](C)N)[C@@H](C)O)C(=O)NCC(=O)N2CCC[C@H]2C(=O)N1)[C@@H](C)CC)C(=O)N[C@@H](Cc1c[nH]c2ccccc12)C(=O)N[C@@H](Cc1ccccc1)C(=O)N[C@@H](CCC(N)=O)C(=O)N[C@@H](CC(N)=O)C(=O)N[C@@H](CCCNC(=N)N)C(=O)N[C@@H](CCCNC(=N)N)C(=O)N[C@@H](CCSC)C(=O)N[C@@H](CCCCN)C(=O)N[C@@H](Cc1c[nH]c2ccccc12)C(=O)N[C@@H](CCCCN)C(=O)N[C@@H](CCCCN)C(=O)O [YJB01] (H-ATWCGPCKPRQIKIWFQNRRMKWKK-OH; disulfide 4-7; N-terminus and C-terminus assumed)
- apoptosis, Annexin V (+) cells, SW480 [1]: cell killing effect
- induction of the oxidized form of peroxiredoxin 1 (peroxiredoxin 1): induced the oxidized form of peroxiredoxin; also recorded: capable of inducing oxidation
- tumor growth at day 10 comparing with day 1 [2]: −0.04% and −4%
- dead cells, SW480 [3]: 81.19%
- Geometric Mean of the fluorescence intensity of DCFDA ([4]; 20 μM): 19.05
- Geometric Mean of the fluorescence intensity of DCFDA ([4]; 100 μM): 29.6
- apoptosis, Annexin V (+) cells, MCF7 [5]: cell killing effect
- IC50 [6]: 89 µM
